System: C57BL/6 mice
Assay: In vivo expression level of Luciferase-mRNA delivered by intravenous injection (bioluminescence imaging)
Settings: mRNA-loaded nanoparticles, compounds of Example 1; intravenous (tail vein), 5 μg Luciferase-mRNA, 6 hours
Protocol: Luciferase-mRNA was used as an mRNA model; and the cationic lipid analogues of Examples 1-5 were used to prepare drug-loaded nanoparticles according to the method of Example 6.
200 μL of nanoparticles containing 5 μg Luciferase-mRNA or the drug-loaded nanoparticles prepared above were injected into tail veins of 6-8 week-old C57BL/6 mice, and 200 μL of 1×PBS solution containing 3 mg D-Luciferin potassium salt was intraperitoneally injected into the mice 6 hours later. After waiting for 10 minutes, an in vivo expression level of the mRNA was evaluated by bioluminescence imaging.

Structure (SMILES) | Fluorescence intensity of liver | Bioluminescence intensity
CCCCCCCCCCCCC#CC#CCCCCCCCCC(=O)N(CCCN(CC)CC)C(C(=O)NCCCCCCCCCCCCCCCCCC)C(C)C (stereo not shown) [A1I18R3C23] | 7.67E+04 | 
CCCCC/C=C\C/C=C\CCCCCCCC(=O)N(CCCN(C)c1ccccc1)C(CCCCC)C(=O)NCCCCCCCCCCCCCCCCCC (stereo not shown) [A4I18R7C18-2] | 5.22E+03 | 
CCCCC/C=C\C/C=C\CCCCCCCC(=O)N(CCCN(C)C)C(C(=O)NCCCCCCCCCCCCCCCCCC)C(C)CCC=C(C)C (stereo not shown) [A5I18R2C18-2] | 8.72E+05 | 
CCCCC/C=C\C/C=C\CCCCCCCC(=O)N(CCN(C)C)C(C(=O)NCCCCCCCCCCCCCCCCCC)C(C)C (stereo not shown) [A1I18R1C18-2] | 2.27E+05 | 
CCCCC/C=C\C/C=C\CCCCCCCC(=O)N(CCCN(C)C)C(C(=O)NCCCCCCCCCCCCCC)C(CC)CCCC (stereo not shown) [A4I10R2C18-2] | 1.15E+06 | 
CCCCCCCCCCCCCCCCCCNC(=O)C(C(CC)CCCC)N(CCCN(CC)CC)C(=O)CCCCCCCCCCCCCCCCC (stereo not shown) [A4I18R3C18] | 1.69E+06 | 
CCCCCCCCCCCCC#CC#CCCCCCCCCC(=O)N(CCN(C)C)C(C(=O)NCCCCCCCCCCCCCCCCCC)C(C)C (stereo not shown) [A1I18R1C23] | 9.51E+05 | 
CC/C=C\C/C=C\C/C=C\CCCCCCCC(=O)N(CCCN(CC)CC)C(C(=O)NCCCCCCCCCCCCCCCCCC)C(C)C (stereo not shown) [A1I18R3C18-3] | 2.22E+04 | 
CCCCCCCCCCCCC#CC#CCCCCCCCCC(=O)N(CCCN(C)C)C(C(=O)NCCCCCCCCCCCCCCCCCC)C(C)C (stereo not shown) [A1I18R2C23] | 2.70E+05 | 
CC/C=C\C/C=C\C/C=C\CCCCCCCC(=O)N(CCN(C)C)C(C(=O)NCCCCCCCCCCCCCCCCCC)C(CC)CCCC (stereo not shown) [A4I18R1C18-3] | 3.88E+06 | 
CCCCCCCC/C=C\CCCCCCCC(=O)N(CCCN(CC)CC)C(C(=O)NCCCCCCCCCCCCCCCCCC)C(C)C (stereo not shown) [A1I18R3C18-1] | 9.29E+03 | 
CC/C=C\C/C=C\C/C=C\CCCCCCCC(=O)N(CCCN(C)C)C(C(=O)NCCCCCCCCCCCCCCCCCC)C(CC)CCCC (stereo not shown) [A4I18R2C18-3] |  | 1.36E+07
CCCCC/C=C\C/C=C\CCCCCCCC(=O)N(CCCN(CC)CC)C(C(=O)NCCCCCCCCCCCCCCCCCC)C(C)C (stereo not shown) [A1I18R3C18-2] | 1.48E+05 | 
CC/C=C\C/C=C\C/C=C\CCCCCCCC(=O)N(CCCN(CC)CC)C(C(=O)NCCCCCCCCCCCCCCCCCC)C1CCCCC1 (stereo not shown) [A23I18R3C18-3] | 1.13E+06 | 
CCCCCCCC/C=C\CCCCCCCC(=O)N(CCN(C)C)C(C(=O)NCCCCCCCCCCCCCCCCCC)C1CCCCC1 (stereo not shown) [A23I18R1C18-1] | 5.74E+06 | 

Same assay, conditions: mRNA-loaded nanoparticles, compounds of Example 2; intravenous (tail vein), 5 μg Luciferase-mRNA, 6 hours

Structure (SMILES) | Bioluminescence intensity | Fluorescence intensity of spleen
CCCCCCCCCCCCCCCCCC(=O)N(CCCN(C)C)C(C(=O)NCCN(C)CCNC(=O)C(C1CCCCC1)N(CCCN(C)C)C(=O)CCCCCCCCCCCCCCCCC)C1CCCCC1 (stereo not shown) [A23I4R2C18] | 5.71E+02 | 
CCCCCCCC/C=C\CCCCCCCC(=O)N(CCN1CCCCCC1)C(C(=O)NCCN(C)CCNC(=O)C(C1CC1)N(CCN1CCCCCC1)C(=O)CCCCCCC/C=C\CCCCCCCC)C1CC1 (stereo not shown) [A21I4R13C18-1] | 9.59E+02 | 
CCCCCCCCCCCCCCCCCC(=O)N(CCC)C(C(=O)NCCN(C)CCNC(=O)C(C(CC)CCCC)N(CCC)C(=O)CCCCCCCCCCCCCCCCC)C(CC)CCCC (stereo not shown) [A4I4R21C18] |  | 2.09E+04
CCCCCCCCCCCCCCCCCC(=O)N(CCOC)C(C(=O)NCCN(C)CCNC(=O)C(C1CC1)N(CCOC)C(=O)CCCCCCCCCCCCCCCCC)C1CC1 (stereo not shown) [A21I4R23C18] |  | 2.65E+04
CCCCCCCCCCCCCCCCCC(=O)N(CCO)C(C(=O)NCCN(C)CCNC(=O)C(C(C)C)N(CCO)C(=O)CCCCCCCCCCCCCCCCC)C(C)C (stereo not shown) [A1I4R22C18] |  | 1.10E+05
CCCCC/C=C\C/C=C\CCCCCCCC(=O)N(CCOC)C(C(=O)NCCN(C)CCNC(=O)C(C1CC1)N(CCOC)C(=O)CCCCCCC/C=C\C/C=C\CCCCC)C1CC1 (stereo not shown) [A21I4R23C18-2] |  | 6.97E+04
CCCCC/C=C\C/C=C\CCCCCCCC(=O)N(CCN1CCCCCC1)C(C(=O)NCCN(C)CCNC(=O)C(C1CC1)N(CCN1CCCCCC1)C(=O)CCCCCCC/C=C\C/C=C\CCCCC)C1CC1 (stereo not shown) [A21I4R13C18-2] | 8.67E+02 | 
CCCCCCCC/C=C\CCCCCCCC(=O)N(CCC)C(C(=O)NCCN(C)CCNC(=O)C(C1CC1)N(CCC)C(=O)CCCCCCC/C=C\CCCCCCCC)C1CC1 (stereo not shown) [A21I4R21C18-1] |  | 8.50E+03
CCCCC/C=C\C/C=C\CCCCCCCC(=O)N(CCN1CCCCCC1)C(C(=O)NCCN(C)CCNC(=O)C(C(C)C)N(CCN1CCCCCC1)C(=O)CCCCCCC/C=C\C/C=C\CCCCC)C(C)C (stereo not shown) [A1I4R13C18-2] |  | 2.85E+04
CCCCC/C=C\C/C=C\CCCCCCCC(=O)N(CCCN(C)C)C(C(=O)NCCN(C)CCNC(=O)C(C1CC1)N(CCCN(C)C)C(=O)CCCCCCC/C=C\C/C=C\CCCCC)C1CC1 (stereo not shown) [A21I4R2C18-2] |  | 1.83E+03
CCCCC/C=C\C/C=C\CCCCCCCC(=O)N(CCN1CCCCCC1)C(C(=O)NCCN(C)CCNC(=O)C(C1CCCCC1)N(CCN1CCCCCC1)C(=O)CCCCCCC/C=C\C/C=C\CCCCC)C1CCCCC1 (stereo not shown) [A23I4R13C18-2] |  | 9.46E+03
CCCCCCCCCCCCCCCCCC(=O)N(CCC)C(C(=O)NCCN(C)CCNC(=O)C(C1CCCCC1)N(CCC)C(=O)CCCCCCCCCCCCCCCCC)C1CCCCC1 (stereo not shown) [A23I4R21C18] |  | 5.43E+03
CCCCC/C=C\C/C=C\CCCCCCCC(=O)N(CCOC)C(C(=O)NCCN(C)CCNC(=O)C(C1CCCCC1)N(CCOC)C(=O)CCCCCCC/C=C\C/C=C\CCCCC)C1CCCCC1 (stereo not shown) [A23I4R23C18-2] |  | 1.04E+05
CCCCCCCC/C=C\CCCCCCCC(=O)N(CCCN(C)C)C(C(=O)NCCN(C)CCNC(=O)C(C(CC)CCCC)N(CCCN(C)C)C(=O)CCCCCCC/C=C\CCCCCCCC)C(CC)CCCC (stereo not shown) [A4I4R2C18-1] |  | 1.13E+03
CCCCC/C=C\C/C=C\CCCCCCCC(=O)N(CCCN(C)C)C(C(=O)NCCN(C)CCNC(=O)C(C1CCCCC1)N(CCCN(C)C)C(=O)CCCCCCC/C=C\C/C=C\CCCCC)C1CCCCC1 (stereo not shown) [A23I4R2C18-2] |  | 2.18E+03
CCCCC/C=C\C/C=C\CCCCCCCC(=O)N(CCC)C(C(=O)NCCN(C)CCNC(=O)C(C1CCCCC1)N(CCC)C(=O)CCCCCCC/C=C\C/C=C\CCCCC)C1CCCCC1 (stereo not shown) [A23I4R21C18-2] |  | 6.07E+04
CCCCCCCC/C=C\CCCCCCCC(=O)N(CCOC)C(C(=O)NCCN(C)CCNC(=O)C(C1CC1)N(CCOC)C(=O)CCCCCCC/C=C\CCCCCCCC)C1CC1 (stereo not shown) [A21I4R23C18-1] |  | 2.28E+04
CCCCCCCC/C=C\CCCCCCCC(=O)N(CCC)C(C(=O)NCCN(C)CCNC(=O)C(C1CCCCC1)N(CCC)C(=O)CCCCCCC/C=C\CCCCCCCC)C1CCCCC1 (stereo not shown) [A23I4R21C18-1] |  | 9.63E+04
CCCCCCCCCCSSCCC(=O)N(CCO)C(C(=O)NCCN(C)CCNC(=O)C(C(C)C)N(CCO)C(=O)CCSSCCCCCCCCCC)C(C)C (stereo not shown) [A1I4R22S15] |  | 4.10E+03
CCCCCCCCCCCCCCCCCC(=O)N(CCN1CCCCCC1)C(C(=O)NCCN(C)CCNC(=O)C(C1CCCCC1)N(CCN1CCCCCC1)C(=O)CCCCCCCCCCCCCCCCC)C1CCCCC1 (stereo not shown) [A23I4R13C18] | 7.89E+02 | 
CCCCCCCCCCCCSSCCC(=O)N(CCO)C(C(=O)NCCN(C)CCNC(=O)C(C(C)C)N(CCO)C(=O)CCSSCCCCCCCCCCCC)C(C)C (stereo not shown) [A1I4R22S17] |  | 1.80E+04
CCCCC/C=C\C/C=C\CCCCCCCC(=O)N(CCC)C(C(=O)NCCN(C)CCNC(=O)C(C(CC)CCCC)N(CCC)C(=O)CCCCCCC/C=C\C/C=C\CCCCC)C(CC)CCCC (stereo not shown) [A4I4R21C18-2] |  | 1.91E+04
CCCCCCCC/C=C\CCCCCCCC(=O)N(CCN1CCCCCC1)C(C(=O)NCCN(C)CCNC(=O)C(C(CC)CCCC)N(CCN1CCCCCC1)C(=O)CCCCCCC/C=C\CCCCCCCC)C(CC)CCCC (stereo not shown) [A4I4R13C18-1] |  | 1.59E+03
CCCCCCCCSSCCC(=O)N(CCO)C(C(=O)NCCN(C)CCNC(=O)C(C(C)C)N(CCO)C(=O)CCSSCCCCCCCC)C(C)C (stereo not shown) [A1I4R22S13] |  | 5.90E+03
CCCCCCCC/C=C\CCCCCCCC(=O)N(CCCN(C)C)C(C(=O)NCCN(C)CCNC(=O)C(C1CCCCC1)N(CCCN(C)C)C(=O)CCCCCCC/C=C\CCCCCCCC)C1CCCCC1 (stereo not shown) [A23I4R2C18-1] |  | 1.78E+03
CCCCCCCCCCCCCCCCCC(=O)N(CCN1CCCCCC1)C(C(=O)NCCN(C)CCNC(=O)C(C(CC)CCCC)N(CCN1CCCCCC1)C(=O)CCCCCCCCCCCCCCCCC)C(CC)CCCC (stereo not shown) [A4I4R13C18] |  | 2.79E+03

Same assay, conditions: mRNA-loaded nanoparticles, compounds of Example 3; intravenous (tail vein), 5 μg Luciferase-mRNA, 6 hours

Structure (SMILES) | Fluorescence intensity of spleen
CCCCCCCCCCCCN(C(=O)CO)C(C(=O)NCCN(CCNC(=O)C(C(C)C)N(CCCCCCCCCCCC)C(=O)CO)CCNC(=O)C(C(C)C)N(CCCCCCCCCCCC)C(=O)CO)C(C)C (stereo not shown) [A1I5R50C21] | 3.60E+06
CCCCCCCCCCCCCCSSCCC(=O)N(CCO)C(C(=O)NCCN(CCNC(=O)C(C(C)C)N(CCO)C(=O)CCSSCCCCCCCCCCCCCC)CCNC(=O)C(C(C)C)N(CCO)C(=O)CCSSCCCCCCCCCCCCCC)C(C)C (stereo not shown) [A1I5R22S19] | 1.80E+06
CCCCCCCCCC(=O)N(CCO)C(C(=O)NCCN(CCNC(=O)C(C(C)C)N(CCO)C(=O)CCCCCCCCC)CCNC(=O)C(C(C)C)N(CCO)C(=O)CCCCCCCCC)C(C)C (stereo not shown) [A1I5R22C10] | 3.00E+05
CCCCCCCCCCCC(=O)N(CCO)C(C(=O)NCCN(CCNC(=O)C(C(C)C)N(CCO)C(=O)CCCCCCCCCCC)CCNC(=O)C(C(C)C)N(CCO)C(=O)CCCCCCCCCCC)C(C)C (stereo not shown) [A1I5R22C12] | 2.96E+06
CCCCCCCCCCCCCCCC(=O)N(CCO)C(C(=O)NCCN(CCNC(=O)C(C(C)C)N(CCO)C(=O)CCCCCCCCCCCCCCC)CCNC(=O)C(C(C)C)N(CCO)C(=O)CCCCCCCCCCCCCCC)C(C)C (stereo not shown) [A1I5R22C16] | 4.10E+05

— patent US20250161216A1, “CATIONIC LIPID ANALOGUES, COMPOSITIONS AND USES THEREOF” (GUANGZHOU LIDE BIOMEDICINE TECHNOLOGY CO., LTD., priority 2022, published 2025)
